Patent publication US20130085182A1, “SODIUM 2-MERCAPTOETHANE SULFONATE FOR USE IN THE TREATMENT OF LUMBAR PAIN” (UNIVERSITA' CAMPUS BIO-MEDICO DI ROMA, priority 2010, published 2013)

Tests used:
Type in all cases: in vivo, human
[1] = tested on: patients suffering from FBSS (lumbar pain); assay: Clinical study: pain evaluation by Numeric Rating Scales (NRS) after peridural infiltration; conditions: 11 FBSS patients, epidural 1 ml of 50 or 100 mg/ml, +1 week
Description: 11 patients (7 males and 4 females), of ages ranging between 48 and 78 years, and suffering from FBSS, were studied (according to the operative diagram in FIG. 1) for a 9-month period. As criteria for inclusion in the treatment protocol were considered: • failed back surgery syndrome (FBSS) • lumbar pain present for >3 months • absence of improvement of pain with administration of oral pharmacological analgesics/opioids-based therapy; • non-eligibility for lumbar revision surgery treatment. • patients refusing treatment; • carriers of infections localized at the level of the infiltration site; • undergoing systemic infective processes; • coagulation alterations. After having been evaluated under the clinical instrumental standpoint, the patient was subjected to infiltrative treatment upon coagulation testing and replacement of oral anticoagulant therapy (possibly taken by the patient), with low molecular weight heparin. Infiltration was conducted in Day Surgery regimen, inviting the patient to have it on an empty stomach. […] The drug at issue, sodium 2-mercaptoethansulfonate, was contained in an ampoule with a 10% concentration; for each infiltration, 1 ml was collected and the concentration used was of 50 mg/ml in some cases and of 100 mg/ml in other cases. The entire infiltration procedure required 10-15 min. Of the 11 patients, 2 had already undergone 3 surgical interventions to the lumbar rachis, other 2 had undergone 2 interventions, and 7 had undergone 1 intervention. […] In particular, we asked to assign a value (comprised between 0 and 10) to pain intensity in a standing position, in horizontal posture, and while sitting; evaluation of the 3 parameters helped us in pain classification, and was aimed at determining musculoskeletal and gravity activation at different instants and the quantitative impact on pain intensity caused by the assuming of the different positions. […] To the first answer a score equal to 0 was assigned, to the second one equal to 1, and so on until the sixth answer that would be equal to 5. the score is calculated as follows: TOTAL SCORE/(5×9)×100.

[2] = tested on: patients suffering from FBSS (lumbar pain); assay: Clinical study: functional improvement by Odom's criteria; conditions: out of 11 FBSS patients; after epidural infiltration
Description: 11 patients (7 males and 4 females), of ages ranging between 48 and 78 years, and suffering from FBSS, were studied (according to the operative diagram in FIG. 1) for a 9-month period. As criteria for inclusion in the treatment protocol were considered: • failed back surgery syndrome (FBSS) • lumbar pain present for >3 months • absence of improvement of pain with administration of oral pharmacological analgesics/opioids-based therapy; • non-eligibility for lumbar revision surgery treatment. • patients refusing treatment; • carriers of infections localized at the level of the infiltration site; • undergoing systemic infective processes; • coagulation alterations. After having been evaluated under the clinical instrumental standpoint, the patient was subjected to infiltrative treatment upon coagulation testing and replacement of oral anticoagulant therapy (possibly taken by the patient), with low molecular weight heparin. Infiltration was conducted in Day Surgery regimen, inviting the patient to have it on an empty stomach. […] The drug at issue, sodium 2-mercaptoethansulfonate, was contained in an ampoule with a 10% concentration; for each infiltration, 1 ml was collected and the concentration used was of 50 mg/ml in some cases and of 100 mg/ml in other cases. The entire infiltration procedure required 10-15 min. Of the 11 patients, 2 had already undergone 3 surgical interventions to the lumbar rachis, other 2 had undergone 2 interventions, and 7 had undergone 1 intervention. In particular, 4 had undergone an herniectomy, 2 an hemilaminectomy, 2 an herniectomy plus an hemilaminectomy and 3 a vertebral stabilization intervention. The levels involved were comprised between L1 and S1, with an extension range of 2 to 5 levels. Each patient was subjected, on average, to 2 (range comprised between 1 and 4) peridural infiltrations of sodium 2 mercaptoethane sulfonate (FIG. 2).

[3] = tested on: patients suffering from FBSS (lumbar pain); assay: Clinical study: lumbar rachis functionality by Oswestry Disability Index (ODI); conditions: 11 FBSS patients; epidural 1 ml of 50 or 100 mg/ml; +1 week; before the procedure 52.18%; P=0.05
Description: 11 patients (7 males and 4 females), of ages ranging between 48 and 78 years, and suffering from FBSS, were studied (according to the operative diagram in FIG. 1) for a 9-month period. As criteria for inclusion in the treatment protocol were considered: • failed back surgery syndrome (FBSS) • lumbar pain present for >3 months • absence of improvement of pain with administration of oral pharmacological analgesics/opioids-based therapy; • non-eligibility for lumbar revision surgery treatment. • patients refusing treatment; • carriers of infections localized at the level of the infiltration site; • undergoing systemic infective processes; • coagulation alterations. After having been evaluated under the clinical instrumental standpoint, the patient was subjected to infiltrative treatment upon coagulation testing and replacement of oral anticoagulant therapy (possibly taken by the patient), with low molecular weight heparin. […] In particular, we asked to assign a value (comprised between 0 and 10) to pain intensity in a standing position, in horizontal posture, and while sitting; evaluation of the 3 parameters helped us in pain classification, and was aimed at determining musculoskeletal and gravity activation at different instants and the quantitative impact on pain intensity caused by the assuming of the different positions. […]

## O=S(=O)([O-])CCS.[Na+] [sodium 2-mercaptoethane sulfonate, Sodium 2-mercaptoethane sulfonate]
[1]; on average 2 infiltrations, pre-procedure mean 7.0, P=0.002
  mean pain NRS (0-10) in a sitting position following the procedure: 5.55
[1]; pre-procedure mean 6.64, P=0.001
  mean pain NRS (0-10) in a horizontal position following the procedure: 4.82
[1]; pre-procedure mean 7.36, P=0.01
  mean pain NRS (0-10) standing following the procedure: 5.73
[2]
  Odom's criteria: number of patients with Excellent result: 0 patients
  Odom's criteria: number of patients with Fair result: 4 patients
  Odom's criteria: number of patients with Good result: 7 patients
  Odom's criteria: number of patients with Poor result: 0 patients
  Odom's criteria: share of patients with Fair result: 36.4%
  Odom's criteria: share of patients with Good result: 63.6%
[3]
  Oswestry Disability Index (ODI), average after the procedure: 41.64%
